Measured values from BindingDB's records for doi:10.1021/acs.jmedchem.1c01473 (Chapman University School of Pharmacy, 2022).

Target: Small conductance calcium-activated potassium channel protein 2 (Rattus norvegicus, UniProt P70604)
Test: Potentiation of rat KCa2.2a expressed in HEK293 cells assessed as increase in calcium response at -90 mV holding potential measured at 1 to 2 days by patch clamp electrophysiology

Sequence of Small conductance calcium-activated potassium channel protein 2 (P70604 whole entry): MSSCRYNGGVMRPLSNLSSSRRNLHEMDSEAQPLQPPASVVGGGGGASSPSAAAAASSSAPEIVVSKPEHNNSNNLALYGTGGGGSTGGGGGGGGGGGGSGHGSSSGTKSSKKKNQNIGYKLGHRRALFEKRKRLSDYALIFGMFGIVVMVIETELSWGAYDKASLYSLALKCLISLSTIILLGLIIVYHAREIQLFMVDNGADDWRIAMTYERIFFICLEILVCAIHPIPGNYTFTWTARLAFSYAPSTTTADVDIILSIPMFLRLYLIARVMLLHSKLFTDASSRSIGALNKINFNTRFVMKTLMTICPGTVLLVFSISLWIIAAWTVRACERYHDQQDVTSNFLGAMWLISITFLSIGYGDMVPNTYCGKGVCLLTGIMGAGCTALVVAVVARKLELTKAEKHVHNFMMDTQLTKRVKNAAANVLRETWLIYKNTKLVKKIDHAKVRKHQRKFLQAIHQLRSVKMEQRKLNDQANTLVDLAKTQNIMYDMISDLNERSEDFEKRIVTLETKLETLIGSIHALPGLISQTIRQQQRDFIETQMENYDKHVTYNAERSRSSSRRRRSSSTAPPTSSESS

| EC50 [nM] | SMILES |
| --- | --- |
| 91 | Cc1cc(Nc2cc(Cl)ccc2F)nc(-n2nc(C)cc2C)n1 |
| 110 | Cc1cc(Nc2ccc(F)c(Cl)c2)nc(-n2nc(C)cc2C)n1 |
